Columns and labels:
[1] = system: rat ventral mesencephalan neurons; test: [3H]Dopamine Cell Culture Assay (6-OHDA neurotoxicity); type: cell-based; conditions: 6-OHDA 30 μM, uptake 22 hrs after exposure
Procedure: Cultures of dopaminergic neurons were prepared according to a modification of the procedure described by Raymon and Leslie (J. Neurochem. 62:1015-1024, 1994). Time-mated pregnant rats were sacrificed on embyronic day 14-15 (crown rump length 11-12 mm) and the embryos removed by cesarean section. The ventral mesencephalon, containing the dopaminergic neurons, was dissected from each embryo. Tissue pieces from approximately 48 embryos were pooled and dissociated both enzymatically and mechanically. An aliquot from the resulting cell suspension was counted and the cells were plated in high glucose DMEM/F12 culture medium with 10% fetal bovine serum at a density of 1×10^5 cells/well of a Biocoat poly-D-lysine-coated 96-well plate. The day following plating was considered 1 day in vitro (DIV). Cells were maintained in a stable environment at 37° C., 95% humidity, and 5% CO2. A partial medium change was performed at 3 DIV. […]
[^3H]Dopamine uptake is used as a measure of the health and integrity of dopaminergic neurons in culture (Prochiantz et al., PNAS 76: 5387-5391, 1979). […] Briefly, cells treated with 6-OHDA in the presence and absence of 5-amino-anthra(9,1-cd)isothiazol-6-one were assessed in the uptake assay 22 hrs after exposure to 6-OHDA. […] Radioactivity was removed and the cultures were washed 3× with ice cold PBS. […]

[2] = Solubility in aqueous media; type: physicochemical
[3] = Brain-Blood Plasma Distribution In Vivo; parameters: species or system Sprague-Dawley rats; conditions: rat
Procedure: 5-Amino-anthra(9,1-cd)isothiazol-6-one was administered intravenously (10 mg/kg) into the veins of Sprague-Dawley rats. After 2 hr, blood samples were obtained from the animals and their vascular systems were perfused with approximately 100 mL of saline to rid their brains of blood. The brains were removed from the animals, weighed, and homogenized in a 50 mL conical tube containing 10 equivalents (w/v) of methanol/saline (1:1) using a Tissue Tearer (Fischer Scientific). The homogenized material was extracted by adding 600 μL of cold methanol to 250 μL of brain homogenate vortexed for 30 sec and subjected to centrifugation for 5 min. After centrifugation, 600 μL of the resulting supernatant was transferred to a clean tube and evaporated at room temperature under reduced pressure to provide a pellet. […] The brain homogenate analysis samples, plasma analysis samples, and standard analysis samples were analyzed and compared using HPLC by injecting 100 μL of a sample onto a 5 μm C-18 Luna column (4.6 mm×150 mm, commercially available from Phenomenex of Torrance, Calif.) and eluting at 1 mL/min with a linear gradient of 30% aqueous acetonitrile containing 0.1% trifluoroacetic acid to 90% aqueous acetonitrile containing 0.1% trifluoroacetic acid over 8 minutes and holding at 90% aqueous acetonitrile containing 0.1% trifluoroacetic acid for 3 min. with absorbance detection at 450 nm. […]

With `Nc1ccc2snc3c2c1C(=O)c1ccccc1-3` [5-amino-anthra(9,1-cd)isothiazol-6-one] the “protection of dopaminergic neurons ([3H]dopamine uptake)” value [1] was “protects rat ventral mesencephalan neurons from the toxic effects of 6-OHDA”, the “solubility in aqueous media” value [2] was “limited solubility” and the brain-drug concentration ([3]; 10 mg/kg intravenously, 2 hr post-dose) was “approximately 65 nmole/g”. For the same compound, the blood-brain barrier crossing ([3]; following intravenous administration) was “crosses the blood-brain barrier to a significant extent”.
